The subject of experiment [1] is spinal nerve ligation model (neuropathic pain model). The experiment in a line: Confirmation of synergistic analgesic effect via dual action (spinal nerve ligation model). Type of experiment: in vivo. Particulars: sub-effective doses, FIG. 1. The method, then: The confirmation of the synergistic analgesic effect via the dual action of mGluR5 and 5-HT2AR was carried out by the use of representative mGluR5 antagonist MPEP (2-methyl-6-(phenylethynyl)pyridine) and 5-HT2AR antagonist MDL11,939 in a “spinal nerve ligation model” which is a neuropathic pain model.
In order to measure the analgesic effect of MPEP and MDL11,939, when administered alone or simultaneously together, the reversibility rate of pain relieving parameter (% reversal) was calculated according to the method of Experimental Example 4 and the results are represented in FIG. 1.

The next experiment has as its target T1, human 5-HT2AR (Homo sapiens, UniProt P28223).
T1 construct: expressed in transfected cells; host or cells: HEK293
Kind of experiment: HTRF-based IP1 accumulation assay (5-HT2AR antagonistic effect). Type of experiment: cell-based. Conditions: HEK293 cells overexpressing human 5-HT2AR; serotonin at EC80. The method in brief: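 HEK293 cells stably overexpressing human 5-HT2AR were pre-incubated with compound (top 10 μM, serial dilutions, LiCl buffer) 10 min at room temperature, then stimulated with EC80 serotonin 30 min at 37 °C. IP1 accumulation was read by HTRF; IC50s came from activity normalized to serotonin and IP1 controls.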

Experiment [2] has as its system physical (tactile) allodynia in spinal nerve ligation model. The experiment in a line: Analgesic efficacy experiment using animal model (Chung model, spinal nerve ligation). Type of experiment: in vivo, Sprague-Dawley rats. Particulars: rat, oral; for inhibition in vivo at 100 mg/kg: 100 mpk; for inhibition in vivo at 50 mg/kg: 50 mpk. The method, then:
The Chung model (spinal nerve ligation model) is a representative animal model to study neuropathic pain and is widely accepted as a gold standard for an animal pain model by global pharmaceutical companies around the world.
In this experiment, male Sprague-Dawley rats (100-120 g) purchased from Koatech (Pyeongtaek-si, Gyeonggi-do) were used. Rats were kept in a room maintained at constant temperature and humidity with a 12 hour light-dark cycle. Rats were allowed to eat and drink freely during the experiment.
For the Chung surgery, rats were anesthetized by isoflurane inhalation and the left lumbar nerves L5 and L6 were tightly tied with a suture thread (6-0 silk thread) at the end of the dorsal ganglion and at a front of an entrance to the sciatic nerve according to the article (Kim and Chung (1992), Pain 50(3):355-63). After suturing the incision, the rats were recovered for 2 weeks in the controlled maintenance room to induce physical allodynia in the left hind paw of the rat. To measure physical (tactile) allodynia, the rats were placed in a cage with a wire mesh on the bottom. Stimuli of increasing intensity (using the von Frey filaments in a range of 0.41 to 15.8 g) were placed on the plantar surface on the side of the nerve injury. The stimulus intensity at which the pain response (abrupt lifting, licking or sucking of the foot) was induced was recorded while applying gradual increment of stimuli. As described in the study of Chaplan et al. (1994) (Chaplan et al. (1994) J. Neurosci. Methods 53(1):55-63), the paw withdrawal threshold (PWT) was determined by increasing or decreasing continuous stimulus intensity, and the result was analyzed by applying Dixon's up-down method. Only rats showing no behavior dysfunction (e.g., feet dragging or dropping) were selected and included in the study, and the PWT of the rats used was 3.16 g or less.
After measuring the degree of basic reaction before drug injection, each compound and solvent were injected by oral administration (12.5-100 mg/kg), and the measurement was repeated at regular time intervals (60 and 120 minutes) after the drug was injected.
The experimenter conducted the PWT measurement in a blind condition not knowing which rat was administered with which drug. The control group was administered with gabapentin (65 mg/kg, intraperitoneal administration), and was randomly mixed during the measurement. Statistical analysis was performed on the measured pain response threshold by calculating the reversal rate (% reversal) from pain in Equation 1 below. […] Pain reversal rate (% reversal)=[(PWT after drug administration)−(PWT before drug administration)]*100/[(15 g, Estimated PWT in normal animals)−(PWT before drug administration)] [Equation 1]
The PWT used in this time is a value obtained by multiplying the gram, the unit of “force” measure, by 10,000, and taking the logarithm, which is a method generally used in academia.
Each experiment consisted of the compound group, the solvent group of the compound and the gabapentin (GBP) group as positive control group. As solvent of the compound, 0.5% HPMC (hydroxypropylmethyl cellulose) was used.

The next experiment addresses T2, mGluR5 (Homo sapiens, UniProt P41594).
T2 construct: expressed in transfected cells; host or cells: HEK293
The experiment in a line: Fluorescence-based Ca2+ mobilization assay. The class given is cell-based. Particulars: HEK293 cells overexpressing mGluR5; L-glutamate at EC80. The method in brief:
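HEK293 cells stably overexpressing mGluR5, dye-loaded 60 min at 37 °C, then preincubated with compound 30 min at room temperature in the dark. Ca2+ response to L-glutamate at EC80 read on FLIPR for 2 min. Signal normalised to glutamate (100%) and vehicle (0%); IC50 from % inhibition.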
(Calcium flux is commonly read through the fluorescence of an indicator in the cells.)

Where [3] appears, read: 1 h, read-out: % reversal (1 h).
Where [4] appears, read: 2 h, read-out: % reversal (2 h).

Read-outs that look alike come from different tables or passages of the source. A value given as a limit tells only on which side of the number the result lay.

T2 sequence (P41594 21-1212): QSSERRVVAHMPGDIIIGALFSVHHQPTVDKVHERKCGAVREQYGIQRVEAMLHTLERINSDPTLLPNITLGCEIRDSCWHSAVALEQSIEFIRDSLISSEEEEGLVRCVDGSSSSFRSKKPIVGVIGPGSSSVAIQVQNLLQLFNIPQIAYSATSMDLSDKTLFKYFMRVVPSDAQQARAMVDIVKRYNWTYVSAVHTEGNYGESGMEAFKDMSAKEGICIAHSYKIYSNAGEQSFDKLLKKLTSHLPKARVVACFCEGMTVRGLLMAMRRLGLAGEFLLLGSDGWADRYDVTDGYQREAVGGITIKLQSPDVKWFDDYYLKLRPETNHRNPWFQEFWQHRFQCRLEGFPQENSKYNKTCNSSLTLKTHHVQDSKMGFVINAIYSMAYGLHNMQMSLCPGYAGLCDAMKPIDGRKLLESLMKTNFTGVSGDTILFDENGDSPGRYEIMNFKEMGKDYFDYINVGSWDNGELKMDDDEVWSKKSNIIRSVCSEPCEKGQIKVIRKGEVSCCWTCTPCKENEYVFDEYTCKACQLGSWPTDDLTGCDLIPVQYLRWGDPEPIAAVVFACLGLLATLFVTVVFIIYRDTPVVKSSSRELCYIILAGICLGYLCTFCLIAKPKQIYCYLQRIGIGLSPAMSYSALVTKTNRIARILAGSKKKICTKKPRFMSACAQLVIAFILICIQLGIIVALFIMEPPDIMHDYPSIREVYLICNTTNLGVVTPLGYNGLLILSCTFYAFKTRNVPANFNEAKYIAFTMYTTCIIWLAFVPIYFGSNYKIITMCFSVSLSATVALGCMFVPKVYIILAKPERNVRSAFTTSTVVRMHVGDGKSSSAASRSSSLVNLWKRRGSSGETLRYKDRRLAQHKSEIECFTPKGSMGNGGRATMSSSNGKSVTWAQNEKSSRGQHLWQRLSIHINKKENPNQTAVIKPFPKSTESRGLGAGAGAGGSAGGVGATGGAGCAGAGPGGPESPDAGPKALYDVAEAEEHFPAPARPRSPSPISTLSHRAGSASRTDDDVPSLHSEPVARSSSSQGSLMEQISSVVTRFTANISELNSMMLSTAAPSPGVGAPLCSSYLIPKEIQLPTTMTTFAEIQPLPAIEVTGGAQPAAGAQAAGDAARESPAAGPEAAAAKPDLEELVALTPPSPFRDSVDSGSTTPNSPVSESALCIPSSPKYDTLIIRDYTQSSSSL
T1 sequence (P28223 whole entry): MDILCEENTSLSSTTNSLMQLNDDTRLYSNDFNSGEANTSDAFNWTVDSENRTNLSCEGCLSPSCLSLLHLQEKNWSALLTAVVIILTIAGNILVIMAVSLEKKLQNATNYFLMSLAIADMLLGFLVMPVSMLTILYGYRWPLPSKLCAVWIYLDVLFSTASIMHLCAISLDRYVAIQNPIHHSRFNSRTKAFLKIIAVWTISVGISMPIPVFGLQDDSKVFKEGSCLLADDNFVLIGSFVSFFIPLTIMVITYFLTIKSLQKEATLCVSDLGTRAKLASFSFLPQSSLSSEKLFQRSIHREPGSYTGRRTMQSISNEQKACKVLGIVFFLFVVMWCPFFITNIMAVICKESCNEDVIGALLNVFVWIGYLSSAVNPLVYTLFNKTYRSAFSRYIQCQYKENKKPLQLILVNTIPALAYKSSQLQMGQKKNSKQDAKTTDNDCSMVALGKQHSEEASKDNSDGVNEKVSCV

For the compound `Cc1cccc(C#Cc2ccccc2)n1` [MPEP, 2-methyl-6-(phenylethynyl)pyridine], the “analgesic effect (% reversal), administered alone” value in experiment [1] is listed as “did not show a significant analgesic effect”.
On the same count and under the same terms, with `OC(c1ccccc1)C1CCN(CCc2ccccc2)CC1` (stereo not shown) [MDL11,939] the entry was “did not show a significant analgesic effect”.
By IC50 is commonly meant the concentration that inhibits the measured activity by half. A lower IC50 goes with inhibition by little substance. For `O=C(NCC1(NC2CC2)CCC1)c1ccc(C#Cc2ccccc2F)cc1` [Example 9, N-((1-(cyclopropylamino)cyclobutyl)methyl)-4-((2-fluorophenyl)ethynyl)benzamide], the results for the IC50 against human 5-HT2AR and at mGluR5 were less than 100 nM and 100 to 500 nM, respectively. Further, the inhibition in vivo at 100 mg/kg came out at 64% in experiment [2] (setting [3]) and 59.6% in experiment [2] (setting [4]).
In the case of `O=C(NCC1CCOC1)c1ccc(C#Cc2ccccc2F)cc1` (stereo not shown) [Example 43, 4-((2-fluorophenyl)ethynyl)-N-((tetrahydrofuran-3-yl)methyl)benzamide], the IC50 was 100 to 500 nM at human 5-HT2AR and less than 100 nM against mGluR5. The inhibition in vivo at 50 mg/kg in experiment [2] (setting [3]) amounted to 72.9%; in experiment [2] (setting [4]), 90.8%.

These data come from patent publication US12435051B2, “Dual modulator of mGluR5 and 5-HT2A receptor, and use thereof” (Vivozon Inc., priority 2020, dated 2025).
